From patent US20250212873A1, “VOLATILE HDAC INHIBITORS FOR THERAPEUTIC AND PLANT APPLICATIONS” (The Regents of the University of California, priority 2022, published 2025)

Columns and labels:
[1] = system: Arabidopsis thaliana roots; test: RNA-Seq of roots of diacetyl vapor exposed Arabidopsis seedlings; format: in vivo
Procedure: In order to understand the molecular changes occurring with the volatile exposure and possibly underlying this developmental phenotype, an RNA-Seq analysis of the roots in diacetyl exposed vs control was performed. A large number of differentially expressed genes (DEGs) was found in the roots of the diacetyl vapor exposed Arabidopsis. 5197 differentially expressed genes (DEGs) (false discovery rate, FDR<0.05) were identified in the root transcriptome of diacetyl-exposed seedlings compared to control.
A. thaliana plants (Col-0) were grown in an Agar medium were synchronized to germinate using pre-treatment in cold. Exposure experiments were started using plants the plates when they were 11 days old and placed in a 10-gallon glass aquarium as a chamber along with a petri dish containing 1 ml of chemical dissolved in PO or PO alone were placed at the other side of the container. After the desired exposure, the roots were separated, and a Trizol-based RNA isolation was carried out as above. Two biological replicates were performed for each condition, with an average of 68,355,820 reads/replicate, with an average of 95% mapped. Multiplexed libraries were made from total RNA input using the Illumina TruSeq RNA sample preparation kit (v2) and 50 bps single-end sequencing was done using the NextSeq500.

[2] = system: A. thaliana plants (Col-0); test: Cold tolerance assay; format: in vivo, Arabidopsis thaliana; settings: cold treatment to -10° C., scored after 5 days; controls ~30%
Procedure: HDACs have also been implicated in responses to a number of abiotic stresses, such as temperature, drought, salt, etc in a variety of ways (M. Luo, et al., Frontiers in Plant Science 8, (2017)). One of the phenotypes that can be rapidly tested in a laboratory is tolerance to cold temperatures in Arabidopsis. […] The yellowing of leaves was determined after 5 days and the controls ˜30% of the leaves turned yellow-brown in the classic cold response previously documented.
Twenty six day old A. thaliana plants (Col-0), that had been transplanted at day 7 to soil, were cold-acclimatized the plants for 7 days at 4° C., and then transferred to respective odor exposure chambers with a petridish containing 2 ml of chemical dissolved in PO or PO alone in a freezing chamber in which temperatures went down every 2° C. for 0.5 h and maintained for 1 hour, and it dropped up to −10° C. […] The survival rate was determined after 5 days. […] One-way analysis of Variance (ANOVA) between groups was performed for plant exposure quantitative data using Graph Pad Prism 9.

[3] = system: A. thaliana plants (Col-0); test: Weed killing assay; format: in vivo, Arabidopsis thaliana; settings: 1% (volume/volume) in PO, 7 days vapor exposure, 4 weeks recovery
From the text: Since large scale changes in gene expression occur it is presumed that higher doses of some of the compounds could negatively affect some plants, even causing death. Since Arabidopsis thaliana is also considered a type of weed and goes by the common name Thale cress, it was used as a model to test the weed killing potential at higher doses. In order to evaluate the activity of some of these volatiles in plant killing twenty-seven day old A. thaliana plants (Col-0), that had been transplanted at day 7 to soil, were placed in 10-gallon glass aquarium as chamber along with a petridish containing 2 ml of chemical dissolved in PO at 1% (volume/volume) or PO alone were placed at the other side of the container. Plants were exposed to odor vapors for 7 days and observed for death.
Twenty-seven day old A. thaliana plants (Col-0), that had been transplanted at day 7 to soil, were placed in 10-gallon glass aquarium as chamber along with a petridish containing 2 ml of chemical dissolved in PO at 1% (volume/volume) or PO alone were placed at the other side of the container. Plants were exposed to odor vapors for 7 days and observed for death.

[4] = system: A549 Cancer cell line; test: Cancer cell viability assay, A549; format: cell-based, human
Procedure: Cells were maintained in a 37° C. incubator with 5% CO2 throughout the experiment. Compound stocks were dissolved in 10% DMSO, but final concentrations were made fresh in complete media as needed. 10% DMSO solvent was used as control in complete media. Cells were seeded onto 12-well plates and allowed 12-24 hours until treatment began to allow cells to adhere to wells. This was followed by minimum 5-day treatment of compounds, changing the media with treatment every 48 hours. Cell lines A549, PC3, and SK-MEL-5 were seeded at 8000 cells/well which would provide 80-100% confluency after 6-day growth. SH-SY5Y was seeded at 8000 cells/well then 16,000 cells/well due to slower growth and given at least 10 days for sufficient growth. After allotted growth times, cell counts were performed via Countess™ automated cell counter. All assays were completed with a minimum of triplicate replicates for all conditions and analyzed through GraphPad Prism One-way ANOVA for significance.

With `CC(=O)C(C)=O` [2,3-butanedione] as the molecule, how does the “differentially expressed genes (DEGs) in the root transcriptome” value ([1]; 1% (v/v) headspace, 7 days, FDR<0.05) read?
The value was 5197 genes.

And the “significantly down-regulated genes in roots” value ([1]; log2 fold-change<-1, FDR<0.05)?
The value was 2572 genes.

And the “significantly up-regulated genes in roots” value ([1]; log2 fold-change>1, FDR<0.05)?
The value was 2625 genes.

And the “yellow leaves after freezing” value [2]?
The value was ~20%.

What about the “plants killed (dead)” value [3] of the same molecule?
Its value is 6 of 8.

What about the “changes in proliferation, A549” value ([4]; 100 mM treatment, triplicates) of the same molecule?
The value was “No significant changes in proliferations”.

What about the “inhibition of cell growth, A549” value ([4]; 33 micro-molar) of the same molecule?
Its value is “may be some A549 inhibition”.
